Results taken from patent US20240132522A1, “HETEROCYCLIC COMPOUNDS AND METHODS OF USE THEREOF” (1cBio, Inc., priority 2022, published 2024).
Counter-ions that a name gives are not always drawn.

What was measured:
[1] = test system: DLD-1 BRCA2(−/−) colorectal adenocarcinoma cells; experiment: Cell viability assay (Cell Titer-Glo), DLD-1 BRCA2(−/−); format: cell-based; conditions: Homo sapiens, DLD-1, 168 h, 7 days, 200 cells/well
Description: (§1) In some embodiments, the biological assay measures the effects that compounds of the present disclosure may have on the viability of cells, e.g., the viability of cancer cells. In some embodiments, DLD-1 wild-type and DLD-1 BRCA2(−/−) colorectal adenocarcinoma cells, an isogenic pair of cell lines differing in the presence and absence, respectively, of both BRCA2 alleles, are used to measure the effect of the disclosed compounds on the viability of cancer cells.
(§2) In some embodiments, the cells are harvested during the logarithmic growth period, counted, and seeded at a specified count in the wells of a 96- or 384-well cell culture plate. In some embodiments, after seeding, the cells are incubated, e.g., at 37° C., 5% CO2 overnight. In some embodiments, the cells are treated with compounds, e.g., with serially diluted test compounds at 8-11 concentrations within a desired concentration range, e.g., from 1 nM-10 μM, for the generation of dose-response curves. In some embodiments, the plate is further incubated, e.g., for another 3-7 days in a humidified incubator at 37° C. and 5% CO2. In some embodiments, cell viability is assessed by luminescence measurement after addition of Cell Titer-Glo reagent (Promega, Madison, Wis.) according to the manufacturer's instructions. In some embodiments, cell viability IC50 values are calculated using XLFit, equation 201: y=A+((B−A)/(1+((x/C)^D))), where A=bottom, B=top, C=IC50, and D=slope. In some embodiments, the effects of the test compounds on the viability of other cell lines such as MDA-MB-436, MDA-MB-231, SUM149PT, HCC1395, and UWB1.289 are determined in an analogous method.
(§3) Compounds of the present disclosure were tested for their effects on the viability of cancer cells. DLD-1 wild-type and DLD-1 BRCA2(−/−) colorectal adenocarcinoma cells, an isogenic pair of cell lines differing in the presence and absence, respectively, of both BRCA2 alleles, were used. The cells were harvested during the logarithmic growth period, counted, and seeded at 50 cells/well for DLD-1 wild-type and 200 cells/well for DLD-1 BRCA2(−/−) in a 384-well cell culture plate. After seeding, cells were incubated at 37° C., 5% CO2 overnight. Cells were treated with serially diluted test compounds at 10 concentrations from 1.5 nM-30 μM) for generation of dose response curves. The plate was further incubated for another 7 days in a humidified incubator at 37° C. and 5% CO2. Cell viability was assessed by luminescence measurement after addition of Cell Titer-Glo reagent (Promega, Madison, Wis.) according to the manufacturer's instructions. Cell viability IC50 values were calculated using XLFit, equation 201: y=A+((B−A)/(1+((x/C)^D))), where A=bottom, B=top, C=IC50, and D=slope. IC50 values are shown in Table B and are presented in ranges, in which “+++”<300 nM, 300 nM≤“++”<3000 nM, and “+”≥3000 nM. Effects of the test compounds on the viability of other cell lines such as MDA-MB-436, MDA-MB-231, SUM149PT, HCC1395, and UWB1.289 are determined in an analogous method.

[2] = test system: DLD-1 wild-type colorectal adenocarcinoma cells; experiment: Cell viability assay (Cell Titer-Glo), DLD-1 wild-type; format: cell-based; conditions: Homo sapiens, DLD-1, 168 h, 7 days, 50 cells/well
Description: as §1, §2, §3

IC50 [1]	IC50 [2]	SMILES
≥ 3000 nM	≥ 3000 nM	CCc1cc2ncc(CN3CC4(C3)CN(c3ccc(C(=O)NC)nc3)C4)cc2[nH]c1=O [Compound No. 9, 5-(6-((7-ethyl-6-oxo-5,6-dihydro-1,5-naphthyridin-3-yl)methyl)-2,6-diazaspiro[3.3]heptan-2-yl)-N-methylpicolinamide formate]
≥ 3000 nM	≥ 3000 nM	CCc1cc2ncc(CN3CCCN(c4ccc(C(=O)NC)nc4)CC3)cc2[nH]c1=O [Compound No. 6, 5-(4-((7-ethyl-6-oxo-5H-1,5-naphthyridin-3-yl)methyl)-1,4-diazepan-1-yl)-N-methylpyridine-2-carboxamide]
≥ 3000 nM	≥ 3000 nM	CCc1cc2ncc(CNC3CC(Nc4ccc(C(=O)NC)nc4)C3)cc2[nH]c1=O (centres unmarked) [Compound No. 29, 5-((3-(((7-ethyl-6-oxo-5,6-dihydro-1,5-naphthyridin-3-yl)methyl)amino)cyclobutyl)amino)-N-methylpicolinamide]

SMILES	IC50 [1]	IC50 [2]
CCc1cc2ncc(CN3CC4CN(c5ccc(C(=O)NC)nc5)CC4C3)cc2[nH]c1=O (centres unmarked) [Compound No. 7, 5-(5-((7-ethyl-6-oxo-5,6-dihydro-1,5-naphthyridin-3-yl)methyl)hexahydropyrrolo[3,4-c]pyrrol-2(1H)-yl)-N-methylpicolinamide]	300 to 3000 nM	≥ 3000 nM
